Patent US7812022B2 (GlaxoSmithKline LLC, priority 2004, dated 2010)

How the values were obtained:
ErbB2 or EGFR = biological target: T1, ErbB2 or EGFR; assay: ErbB family substrate phosphorylation enzyme assay (HTRF), Method A or Method B; format: biochemical
T1 construct: enzymes purified from a baculovirus expression system; Reagent production was conducted essentially as described in Brignola, P. S., et al, (2002) J. Biol. Chem. 277(2): 1576-1585
Summary of the method: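 Baculovirus-expressed EGFR or ErbB2 (0.8 or 10 nM in enzyme mix) phosphorylates biotinylated Peptide C with 20 µM ATP and 0.8 µM peptide (substrate-mix levels), MnCl2, pH 7.5. Reaction ran 90 min at 20 °C with EDTA stop and HTRF anti-phosphotyrosine read. Method A: enzyme added last; Method B: 1 h enzyme–compound preincubation.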

[1] = tested on: BT474 and HN5 tumor cell lines; assay: Methylene blue growth inhibition assay (cellular Method A); format: cell-based, Human; details: Homo sapiens, BT-474, 72 h, 3 days, read-out: Activity (Method): growth inhibition IC50 class
Summary of the method: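 Colo205, BT474 and HN5 cells in DMEM/10% FBS (BT474 10,000, HN5 3,000 cells/well) treated next day with compound in DMEM, 0.3% final DMSO, for 3 days at 37° C. Biomass stained with methylene blue, solubilized, read at OD 620; IC50 interpolated by nonlinear regression from % inhibition versus vehicle.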

[2] = Method B: enzyme mix pre-incubated with compound 1 hour at 20° C., started with substrate mix
[3] = Method A: substrate mix added first, reaction started with enzyme mix

O=C(Nc1cccc(-c2nn3ccccc3c2-c2ccnc(Nc3cccc(F)c3)n2)c1)c1c(F)ccc(F)c1Cl [Example 21, 2-Chloro-3,6-difluoro-N-(3-{3-[2-(3-fluoro-phenylamino)-pyrimidin-4-yl]-pyrazolo[1,5-a]pyridin-2-yl}-phenyl)-benzamide]
Activity (Method): pIC50 class against ErbB2 or EGFR (ErbB2 or EGFR; [2]): +++ (B) (at least one pIC50 measurement of greater than 7 against either ErbB2 or EGFR)
IC50 [1]: 100 to 1000 nM

N#Cc1cc(Nc2nccc(-c3c(-c4cccc(NC(=O)c5c(F)cccc5F)c4)nn4ccccc34)n2)ccc1F [Example 88]
Activity (Method): pIC50 class against ErbB2 or EGFR (ErbB2 or EGFR; [3]): +++ (A) (at least one pIC50 measurement of greater than 7 against either ErbB2 or EGFR)
IC50 [1]: < 100 nM

O=C(Nc1cccc(-c2nn3ccccc3c2-c2ccnc(Nc3cccc(F)c3)n2)c1)c1ccc(F)cc1Cl [Example 20, 2-Chloro-4-fluoro-N-(3-{3-[2-(3-fluoro-phenylamino)-pyrimidin-4-yl]-pyrazolo[1,5-a]pyridin-2-yl}-phenyl)-benzamide]
Activity (Method): pIC50 class against ErbB2 or EGFR (ErbB2 or EGFR; [2]): ++ (B) (at least one pIC50 measurement greater than 6 against either ErbB2 or EGFR but no measurement greater than pIC50 of 7)
IC50 [1]: 100 to 1000 nM

O=C(Nc1cccc(-c2nn3ccccc3c2-c2ccnc(Nc3cccc(F)c3)n2)c1)c1ccncc1 [Example 75, N-[3-(3-{2-[(3-Fluorophenyl)amino]-4-pyrimidinyl}pyrazolo[1,5-a]pyrindin-2-yl)phenyl]-4-pyridinecarboxamide]
Activity (Method): pIC50 class against ErbB2 or EGFR (ErbB2 or EGFR; [2]): +++ (B) (at least one pIC50 measurement of greater than 7 against either ErbB2 or EGFR)
IC50 [1]: 100 to 1000 nM

O=C(Nc1cccc(-c2nn3ccccc3c2-c2ccnc(Nc3ccc(Cl)c(C(F)(F)F)c3)n2)c1)c1c(F)cccc1F [Example 89]
Activity (Method): pIC50 class against ErbB2 or EGFR (ErbB2 or EGFR; [3]): ++ (A) (at least one pIC50 measurement greater than 6 against either ErbB2 or EGFR but no measurement greater than pIC50 of 7)
IC50 [1]: 100 to 1000 nM

COc1ccccc1C(=O)Nc1cccc(-c2nn3ccccc3c2-c2ccnc(Nc3cccc(F)c3)n2)c1 [Example 69, N-[3-(3-{2-[(3-fluorophenyl)amino]-4-pyrimidinyl}pyrazolo[1,5-a]pyridin-2-yl)phenyl]-2-(methyloxy)benzamide]
Activity (Method): pIC50 class against ErbB2 or EGFR (ErbB2 or EGFR; [2]): +++ (B) (at least one pIC50 measurement of greater than 7 against either ErbB2 or EGFR)
IC50 [1]: 100 to 1000 nM

O=C(Nc1cccc(-c2nn3ccccc3c2-c2ccnc(Nc3cccc(F)c3)n2)c1)c1cccc(F)c1 [Example 17, 3-Fluoro-N-(3-{3-[2-(3-fluoro-phenylamino)-pyrimidin-4-yl]-pyrazolo[1,5-a]pyridin-2-yl}-phenyl)-benzamide]
Activity (Method): pIC50 class against ErbB2 or EGFR (ErbB2 or EGFR; [2]): +++ (B) (at least one pIC50 measurement of greater than 7 against either ErbB2 or EGFR)
IC50 [1]: 100 to 1000 nM

Cc1ccc(F)c(C(=O)Nc2cccc(-c3nn4ccccc4c3-c3ccnc(Nc4cccc(F)c4)n3)c2)c1F [Example 72, 2,6-Difluoro-N-[3-(3-{2-[(3-fluorophenyl)amino]-4-pyrimidinyl}pyrazolo[1,5-a]pyridin-2-yl)phenyl]-3-methylbenzamide]
Activity (Method): pIC50 class against ErbB2 or EGFR (ErbB2 or EGFR; [2]): ++ (B) (at least one pIC50 measurement greater than 6 against either ErbB2 or EGFR but no measurement greater than pIC50 of 7)
IC50 [1]: 100 to 1000 nM

NS(=O)(=O)c1ccc(Nc2nccc(-c3c(-c4cccc(NC(=O)c5c(F)cccc5F)c4)nn4ccccc34)n2)cc1 [Example 32, N-{3-[3-(2-{[4-(aminosulfonyl)phenyl]amino}-4-pyrimidinyl)pyrazolo[1,5-a]pyridin-2-yl]phenyl}-2,6-difluorobenzamide]
Activity (Method): pIC50 class against ErbB2 or EGFR (ErbB2 or EGFR; [2]): +++ (B) (at least one pIC50 measurement of greater than 7 against either ErbB2 or EGFR)
IC50 [1]: < 100 nM

O=C(Nc1cccc(-c2nn3ccccc3c2-c2ccnc(Nc3ccc4c(c3)OCCO4)n2)c1)c1ccccc1Cl [Example 6, 2-Chloro-N-(3-{3-[2-(2,3-dihydro-benzo[1,4]dioxin-6-ylamino)-pyrimidin-4-yl]-pyrazolo[1,5-a]pyridin-2-yl}-phenyl)-benzamide]
Activity (Method): pIC50 class against ErbB2 or EGFR (ErbB2 or EGFR; [3]): +++ (A) (at least one pIC50 measurement of greater than 7 against either ErbB2 or EGFR)
IC50 [1]: < 100 nM

Cc1c(F)cccc1C(=O)Nc1cccc(-c2nn3ccccc3c2-c2ccnc(Nc3cccc(F)c3)n2)c1 [Example 71, 3-Fluoro-N-[3-(3-{2-[(3-fluorophenyl)amino]-4-pyrimidinyl}pyrazolo[1,5-a]pyridin-2-yl)phenyl]-2-methylbenzamide]
Activity (Method): pIC50 class against ErbB2 or EGFR (ErbB2 or EGFR; [2]): ++ (B) (at least one pIC50 measurement greater than 6 against either ErbB2 or EGFR but no measurement greater than pIC50 of 7)
IC50 [1]: 100 to 1000 nM

CCS(=O)(=O)Cc1ccc(Nc2nccc(-c3c(-c4cccc(NC(=O)c5cc(F)ccc5F)c4)nn4ccccc34)n2)cc1 [Example 51, N-(3-{3-[2-({4-[(ethylsulfonyl)methyl]phenyl}amino)-4-pyrimidinyl]pyrazolo[1,5-a]pyridin-2-yl}phenyl)-2,5-difluorobenzamide]
Activity (Method): pIC50 class against ErbB2 or EGFR (ErbB2 or EGFR; [3]): +++ (A) (at least one pIC50 measurement of greater than 7 against either ErbB2 or EGFR)
IC50 [1]: 100 to 1000 nM

O=C(Nc1cccc(-c2nn3ccccc3c2-c2ccnc(Nc3cccc(F)c3)n2)c1)c1ccc(F)cc1 [Example 15, 4-Fluoro-N-(3-{3-[2-(3-fluoro-phenylamino)-pyrimidin-4-yl]-pyrazolo[1,5-a]pyridin-2-yl}-phenyl)-benzamide]
Activity (Method): pIC50 class against ErbB2 or EGFR (ErbB2 or EGFR; [2]): +++ (B) (at least one pIC50 measurement of greater than 7 against either ErbB2 or EGFR)
IC50 [1]: 100 to 1000 nM

O=C(Nc1cccc(-c2nn3ccccc3c2-c2ccnc(Nc3cccc(F)c3)n2)c1)c1sccc1Br [Example 80, 3-Bromo-N-[3-(3-{2-[(3-fluorophenyl)amino]-4-pyrimidinyl}pyrazolo[1,5-a]pyridin-2-yl)phenyl]-2-thiophenecarboxamide]
Activity (Method): pIC50 class against ErbB2 or EGFR (ErbB2 or EGFR; [2]): ++ (B) (at least one pIC50 measurement greater than 6 against either ErbB2 or EGFR but no measurement greater than pIC50 of 7)
IC50 [1]: 100 to 1000 nM

COc1cc(Nc2nccc(-c3c(-c4cccc(NC(=O)c5c(F)cccc5F)c4)nn4c(C(F)(F)F)cccc34)n2)cc(OC)c1OC [Example 151, N-[3-(3-{2-[(3,4,5-Trimethoxyphenyl)amino]-4-pyrimidinyl}-7-trifluoropyrazolo[1,5-b]pyridin-2-yl)phenyl]-2,6-difluorobenzamide]
Activity (Method): pIC50 class against ErbB2 or EGFR (ErbB2 or EGFR; [3]): ++ (A) (at least one pIC50 measurement greater than 6 against either ErbB2 or EGFR but no measurement greater than pIC50 of 7)
IC50 [1]: 100 to 1000 nM

O=C(Nc1cccc(-c2nn3ccccc3c2-c2ccnc(Nc3ccon3)n2)c1)c1c(F)cccc1F [Example 85, 2,6-Difluoro-N-(3-{3-[2-(3-isoxazolylamino)-4-pyrimidinyl]pyrazolo[1,5-a]pyridin-2-yl}phenyl)benzamide]
Activity (Method): pIC50 class against ErbB2 or EGFR (ErbB2 or EGFR; [3]): +++ (A) (at least one pIC50 measurement of greater than 7 against either ErbB2 or EGFR)
IC50 [1]: 100 to 1000 nM

N#Cc1cccc(Nc2nccc(-c3c(-c4cccc(NC(=O)c5c(F)cccc5F)c4)nn4ccccc34)n2)c1 [Example 30, N-[3-(3-{2-[(3-cyanophenyl)amino]-4-pyrimidinyl}pyrazolo[1,5-a]pyridin-2-yl)phenyl]-2,6-difluorobenzamide]
Activity (Method): pIC50 class against ErbB2 or EGFR (ErbB2 or EGFR; [3]): +++ (A) (at least one pIC50 measurement of greater than 7 against either ErbB2 or EGFR)
IC50 [1]: < 100 nM

O=C(Nc1cccc(-c2nn3ccccc3c2-c2ccnc(Nc3cccc(F)c3)n2)c1)c1ccccc1 [Example 146]
Activity (Method): pIC50 class against ErbB2 or EGFR (ErbB2 or EGFR; [2]): +++ (B) (at least one pIC50 measurement of greater than 7 against either ErbB2 or EGFR)
IC50 [1]: 100 to 1000 nM

CN(CCCOc1ccc(N)cc1F)c1nccc(-c2c(-c3cccc(NC(=O)c4c(F)cccc4F)c3)nn3ccccc23)n1 [Example 130, N-[3-(3-{2-[{3-[(4-Amino-2-fluorophenyl)oxy]propyl}(methyl)amino]-4-pyrimidinyl}pyrazolo[1,5-a]pyridin-2-yl)phenyl]-2,6-difluorobenzamide]
Activity (Method): pIC50 class against ErbB2 or EGFR (ErbB2 or EGFR; [3]): ++ (A) (at least one pIC50 measurement greater than 6 against either ErbB2 or EGFR but no measurement greater than pIC50 of 7)
IC50 [1]: > 1000 nM

O=C(Nc1cccc(-c2nn3c(C(F)(F)F)cccc3c2-c2ccnc(Nc3cccc(F)c3)n2)c1)c1c(F)cccc1F [Example 153, N-[3-(3-{2-[3-Fluorophenylamino]-4-pyrimidinyl}-7-trifluoropyrazolo[1,5-b]pyridin-2-yl)phenyl]-2,6-difluorobenzamide]
Activity (Method): pIC50 class against ErbB2 or EGFR (ErbB2 or EGFR; [2]): +++ (B) (at least one pIC50 measurement of greater than 7 against either ErbB2 or EGFR)
IC50 [1]: 100 to 1000 nM

S=C(Nc1cccc(-c2nn3ccccc3c2-c2ccnc(Nc3ccc4c(c3)OCCO4)n2)c1)c1ccccc1 [Example 7, N-(3-{3-[2-(2,3-Dihydro-benzo[1,4]dioxin-6-ylamino)-pyrimidin-4-yl]-pyrazolo[1,5-a]pyridin-2-yl}-phenyl)-thiobenzamide]
Activity (Method): pIC50 class against ErbB2 or EGFR (ErbB2 or EGFR; [3]): ++ (A) (at least one pIC50 measurement greater than 6 against either ErbB2 or EGFR but no measurement greater than pIC50 of 7)
IC50 [1]: 100 to 1000 nM

O=C(Nc1cccc(-c2nn3ccccc3c2-c2ccnc(Nc3cccc(F)c3)n2)c1)c1ccccc1F [Example 12, 2-Fluoro-N-(3-{3-[2-(3-fluoro-phenylamino)-pyrimidin-4-yl]-pyrazolo[1,5-a]pyridin-2-yl}-phenyl)-benzamide]
Activity (Method): pIC50 class against ErbB2 or EGFR (ErbB2 or EGFR; [2]): ++ (B) (at least one pIC50 measurement greater than 6 against either ErbB2 or EGFR but no measurement greater than pIC50 of 7)
IC50 [1]: < 100 nM
